Legend:
[1] = tested on: α4β1 or α9β1 LN18 cells; assay: Association and dissociation (off-rate) kinetics in vitro; format: binding, human
Method: Eppendorf vials containing α4β1 or α9β1 LN18 cells (0.5×10^6 cells) were treated with 50 nM of R-BC154 (IXb) (100 μl in TBS-2% FBS containing either 1 mM CaCl2—MgCl2 or 1 mM MnCl2 at 37° C. until for 30 min, washed once with the relevant binding buffer and dry pelleted. The cells were treated with 500 nM of an unlabelled competing inhibitor (100 μl, in TBS-2% FBS containing either 1 mM CaCl2—MgCl2 or 1 mM MnCl2) at 37° C. for the times indicated (0, 2.5, 5, 15, 30, 45, 60 min). The cells were diluted with cold TBS-2% FBS (containing the relevant cations), pelleted by centrifugation, washed once and resuspended (˜200 μl) in binding buffer for flow cytometric analysis. Mean channel fluorescence was plotted against time and the data was fitted to either a one-phase or two-phase exponential decay function using GraphPad Prism 6. The off-rate, koff was extrapolated from the curves.
Eppendorf vials containing α4β1 or α9β1 LN18 cells (0.5×10^6 cells) in 50 μl TBS-2% FBS containing either 1 mM CaCl2—MgCl2 or 1 mM MnCl2 were pre-activated in a heating block for 20 min at 37° C. […] Mean channel fluorescence was plotted against time and the data was fitted to either a one-phase or two phase association function using GraphPad Prism 6. The observed on-rate, kobs was extrapolated from the curves and kon was calculated using […]

[2] = tested on: progenitors (LSK) and HSC (LSKSLAM) in peripheral blood; assay: HSC mobilization to peripheral blood in mice; format: in vivo; conditions: single agent, single dose
Method: For mobilization experiments, all mice received subcutaneous injections at 100 μl/10 gm body weight and PB was harvested by throat bleed using EDTA coated syringes.
(a) R-BC154 (IXb) and BOP. Mice received a single injection of freshly prepared solutions of R-BC154 (IXb) and BOP in saline at the doses indicated before PB was harvested by throat bleed at the times indicated.
(b) G-CSF. Mice received G-CSF at 250 μg/kg twice daily (500 ug/kg/day), 6-8 hours apart for 4 consecutive days. Groups receiving G-CSF and BOP received the standard G-CSF regime as described above followed by a single injection of BOP 1 h prior to harvest. Control mice received an equal volume of saline.
Mice received subcutaneous injections at 100 μl/10 gm body weight of a single injection of BOP (up to 15 mg/kg) for various timeframes, a single BIO5192 injection at 1 mg/kg for 1 hour, a single AMD3100 injection at 3 mg/kg for 1 hour (mice also receiving BOP or BIO15192 were injected with a single dose of BOP or BIO15192 1 hour prior to harvest), or G-CSF at 250 μg/kg twice daily (500 μg/kg/day), 6-8 hours apart for 4 consecutive days (mice also receiving BOP and/or AMD3100 were injected with a single dose of BOP and/or AMD3100 1 h prior to harvest). Control mice received an equivalent volume of saline or 10% HPβCD/saline where appropriate.

[3] = tested on: HSC and progenitors isolated from human BM; assay: R-BC154 (IXb) binding to human BM cells; format: cell-based; conditions: Ca2+/Mg2+
Method: For the assessment of α9β1 contribution to R-BC154 (IXb) binding, human and murine cells were stained with R-BC154 (100 nM) in the absence of competing antagonist or in the presence of excess amounts of the selective α4β1 antagonist BIO5192 (1 μM) or dual α4β1/α9β1 antagonist BOP (1 μM) in PBS containing 0.5% BSA and 1 mM CaCl2MgCl2 at 0° C. for 30 min. Cells were washed, immunolabelled as described above and analysed by flow cytometry. The contribution of α9β1 binding was calculated by measuring the difference in MFI between R-BC154 (IXb)+BIO5192 and +BOP and expressed as a % of R-BC154 (IXb) alone.

CCN(CC)c1ccc2c(-c3ccc(S(=O)(=O)NCc4cn(C5C[C@@H](C(=O)N[C@@H](Cc6ccc(OC(=O)N7CCCC7)cc6)C(=O)O)N(S(=O)(=O)c6ccccc6)C5)nn4)cc3S(=O)(=O)[O-])c3ccc(=[N+](CC)CC)cc-3oc2c1 (stereo partly shown) [R-BC154 (IXb)]
off-rates for α9β1 compared to α4β1 [1]: significantly reduced off-rates
binding affinities relative to BOP ([1]; association and dissociation kinetics studies in vitro): lower binding affinities
increase in PB progenitors (LSK) and HSC (LSKSLAM) [2]: moderate increases
binding to HSC and progenitors isolated from human BM [3]: efficiently bound

Reference: patent US20170340693A1, “DISLODGEMENT AND RELEASE OF HSC USING ALPHA 9 INTEGRIN ANTAGONIST AND CXCR4 ANTAGONIST” (COMMONWEALTH SCIENTIFIC AND INDUSTRIAL RESEARCH ORGANISATION, priority 2014, published 2017)
